Source: US20180021277A1, “ANTI-VIRULENCE COMPOSITIONS AND METHODS” (priority 2012, published 2018)

How the values were obtained:
[1] = system: MRSA USA300; format: in vivo, mice; details: topical twice a day for seven days, day 8
[2] = system: MRSA USA300; assay: Murine MRSA bacteremia/sepsis model
[3] = system: MRSA; assay: CFU counts of F19 treated vs. untreated MRSA cultures (serial dilution-plating); format: cell-based, Staphylococcus aureus
[4] = system: MRSA USA300; assay: Host cell damage assay (LDH leakage), MRSA; format: cell-based, Staphylococcus aureus; details: for % Damage (LDH Leakage): THP-1 human monocytes; for Damage (%): Table 2, control = 100
Experimental: (§1) Damage to host cells was measured by leakage of lactate dehydrogenase (LDH) with the CytoTox 96 Non-Radioactive Cytotoxicity LDH Assay Promega Kits G178 and G1782 according to manufacturer's instructions.
(§2) […] The bacteria were cultured at 37° C., in a shaking incubator for 6 h at which time 20 μL of bacterial culture was added to 5×10^4 THP-1 monocytes or J774.2 macrophages in 100 μL of cell media (DMEM for J774.2 cells and RPMI for THP-1 cells) in 96 well plates. Bacteria and macrophage/monocytes were incubated together for 40 min at 37° C. Plates were then spun at 250 g for 4 min and 50 μL of the supernatant was removed to a new 96 well plate. 50 μL of substrate mix+assay buffer were added and incubated at room temperature for 10-30 min depending upon the rate of product formation and stopped by addition of 50 μL stop solution. The colorometric products were read at 490 nm on a Victor 3 plate reader. The data presented are from experiments performed in triplicate.
(§3) Gram-positive pathogens compromise host cell defense factors by puncturing membranes of immune system cells. To examine F19 efficacy in preventing host cell damage by various pathogens cell lysis assays were carried out by measuring leakage of lactate dehydrogenase (LDH) from cells. F19 indeed inhibits pathogen-mediated lysis of human THP-1 monocytes and mouse macrophage cell line J7774.2 by a series of Gram-positive pathogens, including MRSA, MRSE, Streptococcus pyogenes, Streptococcus pneumoniae and Bacillus cereus in a dose dependent manner (Table 2 for MRSA, Table 4 for other pathogens).

[5] = system: MRSE Q-15; assay: Biofilm measurement (crystal violet), MRSE; format: cell-based, Staphylococcus epidermidis; details: control = 100
Experimental: Bacterial cells were grown in Luria Broth overnight and an OD600 of 0.5 corresponding to 10^6 cfu/mL. 200 μL of this bacterial culture was plated with the presence of compound at various concentrations. Biofilm was allowed to form by placing the plate at 37° C. in the incubator without shaking. The plate was then washed 2× with water while being careful not to disturb the biofilm. Water was aspirated out and the plate was baked dry in a 60° C. incubator for 2 h. 125 μL of a 0.06% crystal violet solution ([…] in H2O) was added to each well and allowed to sit at room temperature for 15 minutes. […] The plate was inverted on a paper towel to dry overnight.125 μL of 30% acetic acid was added to each well and was left at room temperature for 15 minutes. The wells were mixed by pipetting and the solution was transferred to a clean 96-well plate and read at OD595.

[6] = system: Bacillus cereus; assay: Host cell damage assay (LDH leakage), Bacillus cereus; format: cell-based; details: THP-1 human monocytes
Experimental: as §1
Overnight cultures of the bacterial strain to be tested were spun down, washed, diluted 1:4 and incubated with broth containing 10-50 μg/ml of F19 or containing 2% DMSO as control. The bacteria were cultured at 37° C., in a shaking incubator for 6 h at which time 20 μL of bacterial culture was added to 5×10^4 THP-1 monocytes or J774.2 macrophages in 100 μL of cell media (DMEM for J774.2 cells and RPMI for THP-1 cells) in 96 well plates. Bacteria and macrophage/monocytes were incubated together for 40 min at 37° C. Plates were then spun at 250 g for 4 min and 50 μL of the supernatant was removed to a new 96 well plate. 50 μL of substrate mix+assay buffer were added and incubated at room temperature for 10-30 min depending upon the rate of product formation and stopped by addition of 50 μL stop solution. The colorometric products were read at 490 nm on a Victor 3 plate reader. The data presented are from experiments performed in triplicate.
as §3

[7] = system: MRSE Q-15; assay: Host cell damage assay (LDH leakage), MRSE; format: cell-based, Staphylococcus epidermidis; details: for % Damage (LDH Leakage): THP-1 human monocytes; for Damage (%): Table 2, control = 100
Experimental: as §1, §2, §3

[8] = target: T1, AgrA_C from Staphylococcus epidermidis (Staphylococcus epidermidis, UniProt Q5HMY2); assay: Microscale thermophoresis binding to AgrA_C from S. epidermidis; details: compared with S. aureus AgrA_C; data not shown
T1 sequence (Q5HMY2 143-238 limits assumed): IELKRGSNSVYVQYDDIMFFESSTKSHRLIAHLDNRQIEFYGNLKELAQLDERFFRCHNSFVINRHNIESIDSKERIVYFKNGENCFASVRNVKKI
Experimental: The AgrA C proteins from S. aureus and S. epidermidis were fluorescently labeled with Alexa Fluor 647 NHS ester and purified on Zeba spin columns. Compound F19 was diluted as a gradient through the capillaries while protein concentrations were maintained constant. Measurements were performed on a Nanotemper Monolith NT.115 apparatus. Lysozyme and known inhibitor N,N′,N″-triacetylchitotriose (Fisher Scientific) were used as controls.

[9] = system: Strepococcus pyogenes AC7; assay: Host cell damage assay (LDH leakage), Streptococcus pyogenes; format: cell-based; details: THP-1 human monocytes
Experimental: as §1, §2, §3

CCCCCCc1cc(C(=O)COc2ccc(C(C)C)cc2)c(O)cc1O [4f-19]
bacterial load on the wounds compared to vehicle-treated or untreated wounds [1]: did not reduce the bacterial load on the wounds | tissue burden of the wound, average log CFUs ± standard deviation ([1]; cephalothin 30 mg/kg, F19 20 mg/kg, vancomycin 30 mg/kg): 8.50±0.4 log CFU | mean bacterial load in blood compared to vehicle-treated animals ([2]; 30 mg/kg IP twice daily, day 6): nearly an order of magnitude lower | survival ([2]; F19 alone 30 mg/kg IP twice daily for 7 days): 100% | CFU counts, F19 treated vs. untreated cultures [3]: identical CFU counts | % Damage (LDH Leakage) ([4]; F19 1 μg/mL): 62.0 ± 0.6% | % Damage (LDH Leakage) ([4]; F19 10 μg/mL): 44.2 ± 2.0% | % Damage (LDH Leakage) ([4]; F19 50 μg/mL): 29.1 ± 1.6% | Damage (%) ([4]; F19 1 μg/ml): 62.0 ± 0.6% | Damage (%) ([4]; F19 10 μg/ml): 44.2 ± 2.0% | Damage (%) ([4]; F19 50 μg/ml): 29.1 ± 1.6% | Biofilm (%) ([5]; F19 1 μg/ml): 92.2 ± 9.8% | Biofilm (%) ([5]; F19 10 μg/ml): 69.3 ± 10.7% | Biofilm (%) ([5]; F19 50 μg/ml): 34.1 ± 9.8% | % Damage (LDH Leakage) ([6]; F19 30 μg/mL): 63.7 ± 1.3% | % Damage (LDH Leakage) ([6]; F19 40 μg/mL): 52.0 ± 0.1% | % Damage (LDH Leakage) ([6]; F19 50 μg/mL): 69.7 ± 1.2% | % Damage (LDH Leakage) ([7]; F19 1 μg/mL): 85.5 ± 2.6% | % Damage (LDH Leakage) ([7]; F19 5 μg/mL): 62.6 ± 1.1% | % Damage (LDH Leakage) ([7]; F19 10 μg/mL): 48.1 ± 1.1% | % Damage (LDH Leakage) ([7]; F19 20 μg/mL): 26.5 ± 0.5% | % Damage (LDH Leakage) ([7]; F19 30 μg/mL): 22.1 ± 0.6% | % Damage (LDH Leakage) ([7]; F19 40 μg/mL): 19.6 ± 1.1% | Damage (%) ([7]; F19 1 μg/ml): 85.5 ± 2.6% | Damage (%) ([7]; F19 10 μg/ml): 48.1 ± 1.1% | Damage (%) ([7]; F19 50 μg/ml): 15.7 ± 0.5% | affinity to AgrA_C from Staphylococcus epidermidis [8]: Statistically identical affinity | % Damage (LDH Leakage) ([9]; F19 5 μg/mL): 97.4 ± 0.7% | % Damage (LDH Leakage) ([9]; F19 10 μg/mL): 88.4 ± 1.9% | % Damage (LDH Leakage) ([9]; F19 20 μg/mL): 73.6 ± 0.5% | % Damage (LDH Leakage) ([9]; F19 30 μg/mL): 56.2 ± 3.4% | % Damage (LDH Leakage) ([9]; F19 40 μg/mL): 38.7 ± 1.8%
